According to patent US7208282B2 (priority 2001, dated 2007):
“And” between values parts separate entries of the source, which are not always exact repeats. Identical values can stand only once.

Legend:
mock transfected cells = test: radioligand binding to mock transfected HEK293T cells; set-up: species or system human; conditions: for specific binding into mock transfected cells: in words
Procedure: HEK293T cells were seeded into 24-well culture plates coated with poly-D-Lys at 1×10^5 cells/well and were cultured over-night. […] Forty-eight hours after transfection, the transfected monolayer cells were rinsed with the assay buffer (Hanks' balanced salt solution containing 20 mM HEPES, 0.2% BSA and 100 μg/ml bacitracin, pH 7.4). The cells were then incubated in 250 μl/well of the same buffer with [^125I]-MCH (100 pM, NEN Life Science Products, Boston, Mass.) or [^125I]-[Phe^13, Tyr^19]-MCH (100 pM, NEN Life Science Products) for 30 minutes at 37° C. After the incubation, the cells were washed three times with the ice cold assay buffer and lysed with 500 μl/well of 2 M NaOH. The lysates were transferred into test tubes and the cell-bound radioactivity was measured by a COBLA Quantum γ-counter (Packard Instrument, Meriden, Conn.).

rhesus MCH-2R = target: T1, rhesus MCH-2R (Macaca mulatta, UniProt Q8MJ88); test: radioligand binding to adherent HEK293T cells expressing rhesus MCH-2R; set-up: species or system rhesus monkey
T1 construct: expressed in transfected cells; host or cells: HEK293T
T1 sequence (Q8MJ88 whole entry): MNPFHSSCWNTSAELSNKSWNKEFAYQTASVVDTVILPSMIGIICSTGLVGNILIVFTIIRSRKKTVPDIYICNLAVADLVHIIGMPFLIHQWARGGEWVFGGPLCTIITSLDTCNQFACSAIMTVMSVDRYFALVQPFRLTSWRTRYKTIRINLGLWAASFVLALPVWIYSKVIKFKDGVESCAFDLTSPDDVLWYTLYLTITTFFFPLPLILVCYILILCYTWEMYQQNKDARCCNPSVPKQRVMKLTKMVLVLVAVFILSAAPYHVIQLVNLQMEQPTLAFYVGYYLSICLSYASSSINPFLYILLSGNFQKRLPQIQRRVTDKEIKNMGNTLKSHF
Procedure: HEK293T cells were seeded into 24-well culture plates coated with poly-D-Lys at 1×10^5 cells/well and were cultured over-night. The adherent cells were transfected with pEF1/V5-HisC/rhesus MCH-2R plasmid (see Example 2). Forty-eight hours after transfection, the transfected monolayer cells were rinsed with the assay buffer (Hanks' balanced salt solution containing 20 mM HEPES, 0.2% BSA and 100 μg/ml bacitracin, pH 7.4). The cells were then incubated in 250 μl/well of the same buffer with [^125I]-MCH (100 pM, NEN Life Science Products, Boston, Mass.) or [^125I]-[Phe^13, Tyr^19]-MCH (100 pM, NEN Life Science Products) for 30 minutes at 37° C. After the incubation, the cells were washed three times with the ice cold assay buffer and lysed with 500 μl/well of 2 M NaOH. The lysates were transferred into test tubes and the cell-bound radioactivity was measured by a COBLA Quantum γ-counter (Packard Instrument, Meriden, Conn.).

ferret MCH-2R [1] = test: aequorin bioluminescence functional assay, ferret MCH-2R; type: cell-based; conditions: aequorin HEK-293 cells, read-out: Function (EC50)
ferret MCH-2R, sequence (as listed by the source): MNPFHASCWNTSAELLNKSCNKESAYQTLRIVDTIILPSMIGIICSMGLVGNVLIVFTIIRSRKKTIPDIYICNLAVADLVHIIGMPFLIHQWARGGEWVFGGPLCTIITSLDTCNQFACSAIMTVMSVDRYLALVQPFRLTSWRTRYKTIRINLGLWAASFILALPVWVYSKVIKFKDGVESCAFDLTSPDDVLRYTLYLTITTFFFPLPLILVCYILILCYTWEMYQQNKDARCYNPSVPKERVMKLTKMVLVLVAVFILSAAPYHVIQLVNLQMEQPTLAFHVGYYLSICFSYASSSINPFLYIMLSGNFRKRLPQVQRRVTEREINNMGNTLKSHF
Text: The aequorin bioluminescence assay is a reliable test for identifying G-protein-coupled receptors which couple through the G protein subunit family consisting of Gq and G11 which leads to the activation of phospholipase C, mobilization of intracellular calcium, and activation of protein kinase C. (Ungrin, et al., Anal. Biochem. 1999. 272:34–42.)
For expression studies, HEK-293 cells stably expressing the aequorin reporter protein were transiently transfected with MCH-2R human or ferret expression plasmid or stable cell lines were derived (human MCH-2R). The assay was performed using a Luminoscan RT luminometer (Labsystems Inc., Gaithersburg, Md.).
293AEQ17/Aequorin cells (Button, et al., 1993. Cell Calcium 14, 663–671), were cultured for 72 hours and the apo-aequorin in the cells was charged for 1 hour with coelenterazine (10 μM) under reducing conditions (300 μM reduced glutathione) in ECB buffer (140 mM NaCl, 20 mM KCl, 20 mM HEPES-NaOH, pH 7.4, 5 mM glucose, 1 mM MgCl2, 1 mM CaCl2, 0.1 mg/mL bovine serum albumin). […] 100 μL of cell suspension (corresponding to 5×10^4 cells) was then injected into the test plate containing ligands, and the integrated light emission was recorded over 30 seconds, in 0.5-second units. 20 μL of lysis buffer (0.1% final Triton X-100 concentration) was then injected and the integrated light emission recorded over 10 seconds, in 0.5-second units. […]

ferret MCH-2R [2] = test: membrane radioligand binding assay, transfected COS-7 cells, ferret MCH-2R; conditions: COS-7 membranes
Procedure: Membrane binding assays were performed on transiently-transfected COS-7 cells using human or ferret MCH-2R in the plasmid vector pCI-neo (Promega, Madison, Wis.), COS-7 cells were cultured in Dulbecco's modified Eagle medium (Gibco BRL, Rockville, Md.) with 10% heat inactivated fetal calf serum.
A suspension of 7×10^6 COS-7 cells were transfected with 20 μg of pCI-neo/MCH-2R plasmid by electroporation. (Strader, et al., 1987. Proc. Natl. Acad. Sci. USA 84, 4384–4388). Cells were harvested after 60–72 hours. Membranes were prepared from transient and stable transfectants by hypotonic lysis, frozen in liquid nitrogen, and stored at −80° C. (MacNeil, et al., 1994. Biochem. Biophys. Res. Commun. 198, 328–334.)
A binding assay was set up in 96 well plates. Total volume per binding assay point was 200 μL. […] Dose response curves were from 10 μM in 5 fold or 3-fold dilution series for 11 points. The mixture was shaken for 5 minutes on a platform shaker, and incubated at room temperature for 1 hour. Filter plates were presoaked in 1% PEI. The binding reaction was harvested onto filters using Packard Filtermate harvester (Meriden, Conn.). The filters were then washed in 50 mM Tris pH 7.4, 10 mM MgCl2, 2 mM EDTA, 0.04% Tween 20, 6–8 times per plate. […] 30 μL microscintillant was added per well and counted for 1.5–3 minutes in inverted format on Packard TopCount. […]

non-transfected cells = test: intracellular calcium (fura-2) in non-transfected HEK293T cells; type: cell-based, human; conditions: data not shown
Text: The entire coding sequence of rhesus MCH-2R was cloned into BamHI-NotI site of pEF1/[…] C plasmid vector (Invitrogen). The resultant construct was transfected into HEK293T cells using LipofectAmine PLUS (Life Technologies, Rockville, Md.) according to the manufacture's instructions. Human embryonic kidney cells constitutively expressing SV40 large T antigen (HEK-293T) were maintained in Dulbecco's modified Eagle medium (Life Technologies) supplemented with 10% fetal bovine serum, 100 units/ml penicillin-G and 100 μg/ml streptomycin at 37° C. with 5% CO2 in a humidified atmosphere. […] The cells were suspended with the buffer containing 2 μM fura-2 acetoxymethylester (Dojin, Kumamoto, Japan) into the cell density of 1.0×10^7 cells/ml and incubated at 37° C. for 60 minutes with gently shaking. The fura-2-loaded cells were washed twice with the buffer and re-suspended with the buffer to 1.0×10^6 cells/ml. 0.5 ml of the resultant suspension was stirred continuously at 37° C. in a glass cuvette during the measurement. […] Data were analyzed using the software GraphPad Prism Version 3.0 (GraphPad Software, Inc., San Diego, Calif., USA).

[3] = 100 pM radioligand, Mock transfected cells

Row | Substance | [125I]-[Phe13, Tyr19]-MCH binding, Total binding (mock transfected cells; [3]) | [125I]-[Phe13, Tyr19]-MCH binding, Nonspecific binding (mock transfected cells; 100 pM radioligand, in the presence of 1 μM cold [Phe13, Tyr19]-MCH, Mock transfected cells) | specific binding into mock transfected cells (mock transfected cells) | [125I]-[Phe13, Tyr19]-MCH binding, Total binding (rhesus MCH-2R; 100 pM radioligand, 30 minutes at 37° C., rhesus MCH-2R transfected cells) | [125I]-[Phe13, Tyr19]-MCH binding, Nonspecific binding (rhesus MCH-2R; 100 pM radioligand, in the presence of 1 μM cold [Phe13, Tyr19]-MCH, rhesus MCH-2R transfected cells) | binding to HEK293T cells expressing rhesus MCH-2R (rhesus MCH-2R; in words) | EC50 (ferret MCH-2R [1]) [nM] | IC50 (ferret MCH-2R [2]) [nM] | [Ca2+]i increase in non-transfected cells (non-transfected cells) | [125I]-MCH binding, Total binding (mock transfected cells; [3]) | [125I]-MCH binding, Nonspecific binding (mock transfected cells; 100 pM radioligand, in the presence of 1 μM cold MCH, Mock transfected cells)
1 | [^125I]-[Phe^13, Tyr^19]-MCH | 708.9 cpm and 663.3 cpm and 771.5 cpm | 539.7 cpm and 537.7 cpm and 557.8 cpm | not observed | 18031.2 cpm and 18749.0 cpm and 17985.4 cpm | 567.4 cpm and 717.0 cpm and 598.0 cpm | good windows | – | – | – | – | –
2 | Melanin-concentrating hormone [MCH] | – | – | – | – | – | – | 69 | 55 | failed to induce a detectable [Ca^2+]i increase | – | –
3 | [^125I]-MCH | – | – | not observed | – | – | – | – | – | – | 209.9 cpm and 215.8 cpm and 239.8 cpm | 172.0 cpm and 180.9 cpm and 184.1 cpm
